Laboratory results published in ChEMBL document CHEMBL1146936, “Synthesis and evaluation of arylaminoethyl amides as noncovalent inhibitors of cathepsin S. Part 3: heterocyclic P3” (Bioorg Med Chem Lett, 2006).

Tested on: not listed separately
Experiment: Oral bioavailability in Wistar rat at 10 mg/kg, po
Format: ADME, organism-based
Details: in vivo; call rule not given here

bioavailability	Compound
< 1%	COc1ccc(NCCNC(=O)[C@H](CC2CCCCC2)Nc2nc3ccccc3o2)cc1
22%	CCOC(=O)C[C@@H](CN1CCc2cc(F)ccc21)NC(=O)[C@H](CC1CCCCC1)Nc1nc2ccc(Cl)cc2o1
24%	C[C@@H](CN1CCc2cc(F)ccc21)NC(=O)[C@H](CC1CCCCC1)Nc1nc2cccc(Cl)c2o1
15%	C[C@@H](CN1CC(C)(C)c2cc(F)ccc21)NC(=O)[C@H](CC1CCCCC1)Nc1nc2cccc(Cl)c2o1

Tested on: not listed separately
Experiment: Volume of distribution in Wistar rat at 3 mg/kg, iv
Format: ADME, organism-based
Set-up: dose 3 mg/kg, route intravenous
Details: in vivo, read-out: Vss

Vd	Compound
1.63 L/kg	COc1ccc(NCCNC(=O)[C@H](CC2CCCCC2)Nc2nc3ccccc3o2)cc1
2.57 L/kg	C[C@@H](CN1CCc2cc(F)ccc21)NC(=O)[C@H](CC1CCCCC1)Nc1nc2cccc(Cl)c2o1
0.74 L/kg	O=C(O)C[C@@H](CN1CCc2cc(F)ccc21)NC(=O)[C@H](CC1CCCCC1)Nc1nc2ccc(Cl)cc2o1
0.9 L/kg	C[C@@H](CN1CC(C)(C)c2cc(F)ccc21)NC(=O)[C@H](CC1CCCCC1)Nc1nc2cccc(Cl)c2o1

Tested on: not listed separately
Experiment: Cmax in Wistar rat at 10 mg/kg, po
Format: ADME, organism-based
Set-up: dose 10 mg/kg, route oral
Details: in vivo

Cmax	Compound
12 nM	COc1ccc(NCCNC(=O)[C@H](CC2CCCCC2)Nc2nc3ccccc3o2)cc1
1100 nM	CCOC(=O)C[C@@H](CN1CCc2cc(F)ccc21)NC(=O)[C@H](CC1CCCCC1)Nc1nc2ccc(Cl)cc2o1
703 nM	C[C@@H](CN1CCc2cc(F)ccc21)NC(=O)[C@H](CC1CCCCC1)Nc1nc2cccc(Cl)c2o1
1260 nM	C[C@@H](CN1CC(C)(C)c2cc(F)ccc21)NC(=O)[C@H](CC1CCCCC1)Nc1nc2cccc(Cl)c2o1

Tested on: not listed separately
Experiment: Clearance in Wistar rat at 3 mg/kg, iv
Format: ADME, organism-based
Set-up: dose 3 mg/kg, route intravenous
Details: in vivo

clearance	Compound
11.4 mL/min/kg	COc1ccc(NCCNC(=O)[C@H](CC2CCCCC2)Nc2nc3ccccc3o2)cc1
33.1 mL/min/kg	C[C@@H](CN1CCc2cc(F)ccc21)NC(=O)[C@H](CC1CCCCC1)Nc1nc2cccc(Cl)c2o1
23.2 mL/min/kg	O=C(O)C[C@@H](CN1CCc2cc(F)ccc21)NC(=O)[C@H](CC1CCCCC1)Nc1nc2ccc(Cl)cc2o1
10.1 mL/min/kg	C[C@@H](CN1CC(C)(C)c2cc(F)ccc21)NC(=O)[C@H](CC1CCCCC1)Nc1nc2cccc(Cl)c2o1

Tested on: not listed separately
Experiment: Half life in Wistar rat at 10 mg/kg, po
Format: ADME, organism-based
Set-up: dose 10 mg/kg, route oral
Details: in vivo

Compound	half-life
COc1ccc(NCCNC(=O)[C@H](CC2CCCCC2)Nc2nc3ccccc3o2)cc1	5.3 h
C[C@@H](CN1CCc2cc(F)ccc21)NC(=O)[C@H](CC1CCCCC1)Nc1nc2cccc(Cl)c2o1	1.1 h
C[C@@H](CN1CC(C)(C)c2cc(F)ccc21)NC(=O)[C@H](CC1CCCCC1)Nc1nc2cccc(Cl)c2o1	5.1 h

Now from value to compound:

half-life	Compound
1 h	CCOC(=O)C[C@@H](CN1CCc2cc(F)ccc21)NC(=O)[C@H](CC1CCCCC1)Nc1nc2ccc(Cl)cc2o1
4.1 h	C[C@@H](CN1c2ccc(F)cc2CC1(C)C)NC(=O)[C@H](CC1CCCCC1)Nc1nc2cccc(Cl)c2o1

Tested on: Rattus norvegicus
Experiment: Plasma concentration in Wistar rat at 10 mg/kg, po
Format: ADME, organism-based
Set-up: dose 10 mg/kg, route oral
Details: in vivo

Cp	concentration	Compound
Not Active	–	COc1ccc(NCCNC(=O)[C@H](CC2CCCCC2)Nc2nc3ccccc3o2)cc1
Not Active	–	CCOC(=O)C[C@@H](CN1CCc2cc(F)ccc21)NC(=O)[C@H](CC1CCCCC1)Nc1nc2ccc(Cl)cc2o1
–	> 1000 nM	O=C(O)C[C@@H](CN1CCc2cc(F)ccc21)NC(=O)[C@H](CC1CCCCC1)Nc1nc2ccc(Cl)cc2o1

Tested on: Liver microsomes
Experiment: Metabolic stability in Wistar rat liver microsome
Format: ADME
Details: not given

Stability	Compound
< 5%	COc1ccc(NCCNC(=O)[C@H](CC2CCCCC2)Nc2nc3ccccc3o2)cc1

Tested on: not listed separately
Experiment: Half life in Wistar rat at 3 mg/kg, iv
Format: ADME, organism-based
Set-up: dose 3 mg/kg, route intravenous
Details: in vivo

half-life	Compound
4.8 h	COc1ccc(NCCNC(=O)[C@H](CC2CCCCC2)Nc2nc3ccccc3o2)cc1
2.3 h	C[C@@H](CN1CCc2cc(F)ccc21)NC(=O)[C@H](CC1CCCCC1)Nc1nc2cccc(Cl)c2o1
1 h	O=C(O)C[C@@H](CN1CCc2cc(F)ccc21)NC(=O)[C@H](CC1CCCCC1)Nc1nc2ccc(Cl)cc2o1
8.3 h	C[C@@H](CN1CC(C)(C)c2cc(F)ccc21)NC(=O)[C@H](CC1CCCCC1)Nc1nc2cccc(Cl)c2o1

Tested on: not listed separately
Experiment: AUC in Wistar rat at 10 mg/kg, po
Format: ADME, organism-based
Set-up: dose 10 mg/kg, route oral
Details: plasma

Compound	AUC
COc1ccc(NCCNC(=O)[C@H](CC2CCCCC2)Nc2nc3ccccc3o2)cc1	15 ng·h/mL
C[C@@H](CN1CCc2cc(F)ccc21)NC(=O)[C@H](CC1CCCCC1)Nc1nc2cccc(Cl)c2o1	1080 ng·h/mL
C[C@@H](CN1CC(C)(C)c2cc(F)ccc21)NC(=O)[C@H](CC1CCCCC1)Nc1nc2cccc(Cl)c2o1	2400 ng·h/mL

The remaining lines, values ahead:

AUC	Compound
1580 ng·h/mL	CCOC(=O)C[C@@H](CN1CCc2cc(F)ccc21)NC(=O)[C@H](CC1CCCCC1)Nc1nc2ccc(Cl)cc2o1
900 ng·h/mL	C[C@@H](CN1c2ccc(F)cc2CC1(C)C)NC(=O)[C@H](CC1CCCCC1)Nc1nc2cccc(Cl)c2o1
